Values of other authors in patent US8673972B2, “Human papilloma virus as predictor of cancer prognosis” (Foundation Medicine, Inc., priority 2012, dated 2014).

Key:
Details in all cases: stated in words only
CDK1 = CDK1 (Homo sapiens, UniProt P06493)
CDK2 = CDK2 (Homo sapiens, UniProt P24941)
CDK4 = CDK4 (Homo sapiens, UniProt P11802)
CDK7 = CDK7 (Homo sapiens, UniProt P50613)
CDK9 = CDK9 (Homo sapiens, UniProt P50750)
Chain of CDK9 (P50750 whole entry): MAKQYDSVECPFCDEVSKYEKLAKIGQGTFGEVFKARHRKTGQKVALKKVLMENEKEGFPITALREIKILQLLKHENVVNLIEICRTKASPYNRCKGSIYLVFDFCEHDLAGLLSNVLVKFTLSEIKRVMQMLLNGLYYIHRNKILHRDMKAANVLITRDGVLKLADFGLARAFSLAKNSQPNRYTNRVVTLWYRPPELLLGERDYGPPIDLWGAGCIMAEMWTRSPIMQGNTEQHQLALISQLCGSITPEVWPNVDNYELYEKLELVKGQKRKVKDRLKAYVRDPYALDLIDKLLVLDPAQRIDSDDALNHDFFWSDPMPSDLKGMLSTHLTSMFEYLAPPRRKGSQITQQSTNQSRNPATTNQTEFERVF
Chain of CDK9 (O60563 whole entry partner): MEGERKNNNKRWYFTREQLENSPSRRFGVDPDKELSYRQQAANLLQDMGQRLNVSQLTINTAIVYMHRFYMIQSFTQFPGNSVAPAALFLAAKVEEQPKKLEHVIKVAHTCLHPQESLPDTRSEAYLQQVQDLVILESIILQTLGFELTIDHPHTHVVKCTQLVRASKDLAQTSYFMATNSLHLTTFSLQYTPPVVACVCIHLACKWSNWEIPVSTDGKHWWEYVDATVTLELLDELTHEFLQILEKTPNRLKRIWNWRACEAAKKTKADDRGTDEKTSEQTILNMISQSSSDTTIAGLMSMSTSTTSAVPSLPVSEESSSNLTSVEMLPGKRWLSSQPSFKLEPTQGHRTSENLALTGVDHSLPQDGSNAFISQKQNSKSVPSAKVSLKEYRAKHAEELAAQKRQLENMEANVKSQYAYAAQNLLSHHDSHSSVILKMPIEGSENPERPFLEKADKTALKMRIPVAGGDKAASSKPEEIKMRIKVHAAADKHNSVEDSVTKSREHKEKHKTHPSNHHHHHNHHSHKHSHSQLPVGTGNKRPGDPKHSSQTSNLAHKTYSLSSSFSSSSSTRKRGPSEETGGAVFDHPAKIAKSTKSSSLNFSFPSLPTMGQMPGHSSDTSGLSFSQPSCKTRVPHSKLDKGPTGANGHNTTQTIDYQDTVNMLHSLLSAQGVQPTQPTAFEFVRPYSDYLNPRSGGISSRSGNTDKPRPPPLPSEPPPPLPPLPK

Chain of CDK7 (P50613 whole entry): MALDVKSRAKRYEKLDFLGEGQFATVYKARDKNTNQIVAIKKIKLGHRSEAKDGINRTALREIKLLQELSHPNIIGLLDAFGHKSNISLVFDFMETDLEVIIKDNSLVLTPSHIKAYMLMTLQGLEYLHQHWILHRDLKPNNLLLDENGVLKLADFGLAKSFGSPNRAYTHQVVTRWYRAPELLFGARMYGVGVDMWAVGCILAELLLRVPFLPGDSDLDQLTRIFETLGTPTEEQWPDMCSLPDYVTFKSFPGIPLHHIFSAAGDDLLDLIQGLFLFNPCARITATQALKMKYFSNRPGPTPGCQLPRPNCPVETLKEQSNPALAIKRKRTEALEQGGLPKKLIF
Chain of CDK7 (P51946 whole entry partner): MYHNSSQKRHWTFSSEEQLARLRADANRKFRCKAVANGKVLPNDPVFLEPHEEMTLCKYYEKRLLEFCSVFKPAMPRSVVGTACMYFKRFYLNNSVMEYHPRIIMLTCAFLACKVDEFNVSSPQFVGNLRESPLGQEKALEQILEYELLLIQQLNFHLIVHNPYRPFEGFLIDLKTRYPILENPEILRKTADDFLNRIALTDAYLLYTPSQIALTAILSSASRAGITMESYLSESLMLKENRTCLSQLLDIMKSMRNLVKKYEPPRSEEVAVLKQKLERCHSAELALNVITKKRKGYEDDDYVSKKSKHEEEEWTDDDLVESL
Chain of CDK7 (P51948 whole entry partner): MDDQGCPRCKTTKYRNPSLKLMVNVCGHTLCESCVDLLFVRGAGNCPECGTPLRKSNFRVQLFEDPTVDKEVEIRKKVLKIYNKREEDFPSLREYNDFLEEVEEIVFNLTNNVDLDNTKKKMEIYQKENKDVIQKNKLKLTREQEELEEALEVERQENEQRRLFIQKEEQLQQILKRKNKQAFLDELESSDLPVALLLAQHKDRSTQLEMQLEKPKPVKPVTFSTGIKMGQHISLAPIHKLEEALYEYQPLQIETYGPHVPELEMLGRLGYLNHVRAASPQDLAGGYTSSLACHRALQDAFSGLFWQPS
Chain of CDK1 (P06493 whole entry): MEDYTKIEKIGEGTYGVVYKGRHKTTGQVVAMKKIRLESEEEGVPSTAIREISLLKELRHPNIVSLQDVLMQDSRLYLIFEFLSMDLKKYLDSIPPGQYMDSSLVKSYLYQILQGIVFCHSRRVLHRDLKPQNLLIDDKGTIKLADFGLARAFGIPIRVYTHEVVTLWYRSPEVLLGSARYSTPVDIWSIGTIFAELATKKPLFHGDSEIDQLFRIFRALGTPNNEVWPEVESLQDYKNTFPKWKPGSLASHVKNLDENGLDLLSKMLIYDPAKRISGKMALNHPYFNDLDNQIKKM
Chain of CDK1 (P14635 whole entry partner): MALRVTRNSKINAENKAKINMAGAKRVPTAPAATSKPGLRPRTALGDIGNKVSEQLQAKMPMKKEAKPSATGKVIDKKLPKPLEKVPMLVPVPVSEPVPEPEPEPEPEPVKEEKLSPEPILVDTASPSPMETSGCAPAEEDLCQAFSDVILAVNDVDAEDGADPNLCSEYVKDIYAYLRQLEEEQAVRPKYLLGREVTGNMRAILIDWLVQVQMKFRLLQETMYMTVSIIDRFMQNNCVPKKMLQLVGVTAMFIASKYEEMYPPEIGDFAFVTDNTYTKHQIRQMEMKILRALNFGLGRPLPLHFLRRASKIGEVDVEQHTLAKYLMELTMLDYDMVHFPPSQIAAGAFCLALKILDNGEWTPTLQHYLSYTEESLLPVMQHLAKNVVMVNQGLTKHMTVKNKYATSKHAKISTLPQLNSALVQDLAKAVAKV
Chain of CDK4 (P11802 whole entry): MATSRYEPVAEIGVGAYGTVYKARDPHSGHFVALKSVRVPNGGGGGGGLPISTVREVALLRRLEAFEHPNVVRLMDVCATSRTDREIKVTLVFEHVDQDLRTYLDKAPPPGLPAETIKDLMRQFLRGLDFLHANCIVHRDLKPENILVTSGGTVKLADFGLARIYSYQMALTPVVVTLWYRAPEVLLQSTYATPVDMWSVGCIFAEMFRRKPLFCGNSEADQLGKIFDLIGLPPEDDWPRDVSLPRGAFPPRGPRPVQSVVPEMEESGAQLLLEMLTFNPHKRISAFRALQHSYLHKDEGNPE
Chain of CDK4 (P24385 whole entry partner): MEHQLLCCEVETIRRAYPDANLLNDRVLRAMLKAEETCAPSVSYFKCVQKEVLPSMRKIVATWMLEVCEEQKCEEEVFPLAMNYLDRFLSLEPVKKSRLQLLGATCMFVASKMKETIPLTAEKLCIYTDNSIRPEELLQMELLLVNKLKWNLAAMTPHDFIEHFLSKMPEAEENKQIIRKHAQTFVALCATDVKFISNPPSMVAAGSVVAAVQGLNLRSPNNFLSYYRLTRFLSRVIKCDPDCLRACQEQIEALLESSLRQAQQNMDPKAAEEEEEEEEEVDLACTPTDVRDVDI

CC1(C)/C(=C2/C(=O)Nc3ccc(S(N)(=O)=O)cc32)Nc2ccccc21 [ZK-304709, (Z)-3,3-dimethyl-2′-oxo-[2,3′-biindolinylidene]-5′-sulfonamide]
nanomolar range: IC50 CDK1, in words (CDK1) | IC50 CDK2, in words (CDK2) | IC50 CDK4, in words (CDK4) | IC50 CDK7, in words (CDK7) | IC50 CDK9, in words (CDK9)
